Measurements reported in patent US10428017B2, “Modulators of the cystic fibrosis transmembrane conductance regulator protein and methods of use” (AbbVie S.à.r.l., priority 2017, dated 2019).
Where two headings read alike, the source gives them in different places.

Target: T1, F508delCFTR (Homo sapiens, UniProt P13569, DEL508-508)
T1 construct: expressed in transfected cells; host or cells: CFBE4lo-F508delCFTR-HRP cells (human lung derived epithelial cell line, doxycycline-inducible)
Test: Cell Surface Expression-Horse Radish Peroxidase (CSE-HRP) Assay
Format: cell-based
Conditions: for EC50: CFBE4lo-F508delCFTR-HRP cells, 18-24 hours at 33° C.; for Maximum % activity (with co-corrector): with co-corrector 2 μM
Method: Cell Surface Expression-Horse Radish Peroxidase (CSE-HRP) Assay
A cellular assay for measuring the F508delCFTR cell surface expression after correction with test compounds either without or with a co-corrector (2 μM of 3-[(2R,4R)-4-({[1-(2,2-difluoro-1,3-benzodioxol-5-yl)cyclopropyl]carbonyl}amino)-7-methoxy-3,4-dihydro-2H-chromen-2-yl]benzoic acid), was developed in human lung derived epithelial cell line (CFBE4lo−) (Veit G et al, (2012) Mol Biol Cell. 23(21): 4188-4202). The development was achieved by expressing the F508delCFTR mutation along with a horseradish peroxidase (HRP) in the fourth exofacial loop, and then measuring the HRP activity using luminescence readout from these cells, CFBE4lo-F508delCFTR-HRP, that were incubated overnight with the test corrector compounds, either without or with the co-corrector. For this primary assay, the CFBE4lo-F508delCFTR-HRP cells were plated in 384-well plates (Greiner Bio-one; Cat 781080) at 4,000 cells/well along with 0.5 μg/mL doxycycline to induce the F508delCFTR-HRP expression and further incubated at 37° C., 5% CO2 for 72 hours. The test compounds were then added either without or with a co-corrector at the required concentrations and further incubated for 18-24 hours at 33° C. The highest concentration tested was 20 μM with an 8-point concentration response curve using a 3-fold dilution in both the test compound without or with the co-corrector. Three replicate plates were run to determine one EC50. All plates contained negative controls (dimethyl sulfoxide, DMSO) and positive control (2 μM of 3-[(2R,4R)-4-({[1-(2,2-difluoro-1,3-benzodioxol-5-yl)cyclopropyl]carbonyl}amino)-7-methoxy-3,4-dihydro-2H-chromen-2-yl]benzoic acid) as well as on-plate concentration response of the positive control. Post incubation, the plates were washed 5× times with Dulbecco's phosphate buffered saline (DPBS), followed by the addition of the HRP substrate, luminol (50 μL), and measuring the HRP activity using luminescence readout on EnVision® Multilabel Plate Reader (Perkin Elmer; product number 2104-0010). The raw counts from the experiment were analyzed using Accelrys® Assay Explorer v3.3.
Z′ greater than 0.5 was used as passing quality control criteria for the plates.
The Z′ is defined as: 1−[3*SDPositive Control+3*SDNegative Control/Absolute(Meanpostivie Control−MeanNegative Control)] wherein “SD” is standard deviation.
The % activity measured at each of the 8 test concentrations of the test compound added either without or with a co-corrector (2 μM of 3-[(2R,4R)-4-({[1-(2,2-difluoro-1,3-benzodioxol-5-yl)cyclopropyl]carbonyl}amino)-7-methoxy-3,4-dihydro-2H-chromen-2-yl]benzoic acid) was normalized to the on-plate positive control using the following formulae: % activity(Test compound without co-corrector)=[(test compound without co-corrector response−DMSO response)/(positive control response−DMSO response)]*100 % activity(Test compound with co-corrector)=[(test compound with co-corrector response−DMSO response)/(positive control response−DMSO response)]*100
The maximum % activity achieved for the test compound either without or with a co-corrector at any tested concentration is presented in Table 1 along with the respective EC50's calculated using the following general sigmoidal curve with variable Hill slope equation (described as Model 42 in the Accelrys® Assay Explorer v3.3 software): y=(a−d)/(1+(x/c)^b)+d
General sigmoidal curve with concentration, response, top, bottom, EC50 and Hill slope. This model describes a sigmoidal curve with an adjustable baseline, a. The equation can be used to fit curves where response is either increasing or decreasing with respect to the independent variable, “x”.
“x” is a concentration of drug under test.
“a” is the maximum response, and “d” is the minimum response
“c” is the inflection point (EC50) for the curve. That is, “y” is halfway between the lower and upper asymptotes when x=c.
“b” is the slope-factor or Hill coefficient. […]

[1] = test compound without co-corrector, HRP luminescence readout, read-out: EC50 (without co-corrector)
[2] = test compound without co-corrector, maximum at any tested concentration (up to 20 μM), normalized to on-plate positive control (2 μM co-corrector)
[3] = with co-corrector 2 μM 3-[(2R,4R)-4-({[1-(2,2-difluoro-1,3-benzodioxol-5-yl)cyclopropyl]carbonyl}amino)-7-methoxy-3,4-dihydro-2H-chromen-2-yl]benzoic acid, read-out: EC50 (with co-corrector)
[4] = maximum at any tested concentration (up to 20 μM), normalized to on-plate positive control (2 μM co-corrector)

T1 sequence (P13569 with tags, fused parts or gaps DEL508-508): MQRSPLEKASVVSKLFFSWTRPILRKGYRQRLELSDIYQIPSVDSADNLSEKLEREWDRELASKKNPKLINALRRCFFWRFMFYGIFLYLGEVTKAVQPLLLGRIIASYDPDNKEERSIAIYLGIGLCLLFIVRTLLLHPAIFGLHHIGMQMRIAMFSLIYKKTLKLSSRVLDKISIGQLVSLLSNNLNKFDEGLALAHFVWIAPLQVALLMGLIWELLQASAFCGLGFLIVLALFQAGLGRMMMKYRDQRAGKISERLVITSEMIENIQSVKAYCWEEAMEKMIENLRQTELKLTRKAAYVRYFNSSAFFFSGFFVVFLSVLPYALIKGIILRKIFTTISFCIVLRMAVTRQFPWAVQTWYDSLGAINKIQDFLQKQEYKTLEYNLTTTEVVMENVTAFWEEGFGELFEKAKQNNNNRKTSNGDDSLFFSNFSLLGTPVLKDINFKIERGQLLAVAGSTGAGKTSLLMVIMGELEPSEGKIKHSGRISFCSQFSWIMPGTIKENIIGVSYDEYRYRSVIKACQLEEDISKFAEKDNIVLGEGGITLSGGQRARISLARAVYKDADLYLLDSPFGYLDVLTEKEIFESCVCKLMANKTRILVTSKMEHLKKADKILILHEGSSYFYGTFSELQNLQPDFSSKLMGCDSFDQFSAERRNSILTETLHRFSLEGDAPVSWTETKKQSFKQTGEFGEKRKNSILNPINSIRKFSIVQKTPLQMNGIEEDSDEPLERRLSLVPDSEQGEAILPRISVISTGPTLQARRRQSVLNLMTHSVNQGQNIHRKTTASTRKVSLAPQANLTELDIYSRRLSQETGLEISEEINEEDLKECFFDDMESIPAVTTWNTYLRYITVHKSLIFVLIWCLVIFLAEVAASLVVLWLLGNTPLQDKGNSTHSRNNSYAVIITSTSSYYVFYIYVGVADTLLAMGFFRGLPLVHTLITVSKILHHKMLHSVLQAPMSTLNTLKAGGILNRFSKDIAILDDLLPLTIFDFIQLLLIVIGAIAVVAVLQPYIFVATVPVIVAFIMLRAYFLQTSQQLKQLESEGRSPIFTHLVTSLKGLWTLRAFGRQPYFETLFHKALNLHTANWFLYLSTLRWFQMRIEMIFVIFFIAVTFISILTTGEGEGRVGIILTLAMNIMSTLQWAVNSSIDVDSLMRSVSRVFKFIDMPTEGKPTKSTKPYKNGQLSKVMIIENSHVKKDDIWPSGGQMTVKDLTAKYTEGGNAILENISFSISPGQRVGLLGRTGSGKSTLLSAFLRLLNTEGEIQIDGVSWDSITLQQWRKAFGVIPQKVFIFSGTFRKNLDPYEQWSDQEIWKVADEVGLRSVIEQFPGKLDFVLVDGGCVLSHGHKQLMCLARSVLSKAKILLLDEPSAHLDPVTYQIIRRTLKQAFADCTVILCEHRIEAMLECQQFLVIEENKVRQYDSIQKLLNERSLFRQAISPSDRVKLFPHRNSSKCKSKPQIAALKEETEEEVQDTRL

Compound | EC50 [1] | EC50 [3] | Maximum % activity (with co-corrector) [4] | Emax [2] | Maximum % activity (without co-corrector) [2]
4-methoxy-N-(naphthalene-1-sulfonyl)-5-(trifluoromethyl)-2,3-dihydro-1-benzofuran-3-carboxamide and 4-methoxy-N-(naphthalene-1-sulfonyl)-7-(trifluoromethyl)-2,3-dihydro-1-benzofuran-3-carboxamide [Example 40] | < 3 µM | < 3 µM | +++ (≥350) | – | +++ (≥150)
COc1ccc(Cl)c2c1[C@@H](C(=O)NS(=O)(=O)c1cccc3ccccc13)CO2 (single isomer, unassigned) [Example 67] | 3 to 10 µM | < 3 µM | +++ (≥350) | ≥ 150% | –
COc1ccc(Cl)c2c1[C@H](C(=O)NS(=O)(=O)c1cccc3ccccc13)CO2 (single isomer, unassigned) [Example 68] | 3 to 10 µM | < 3 µM | +++ (≥350) | ≥ 150% | –
COc1ccc(Br)c2c1[C@@H](C(=O)NS(=O)(=O)c1cccc3ccccc13)CO2 (single isomer, unassigned) [Example 73] | 3 to 10 µM | 3 to 10 µM | ++ (≥150 and <350) | 50 to 150% | –
O=C(NS(=O)(=O)c1cccc2ccccc12)C1(c2ccccc2)CCOc2ccc(Br)cc21 (stereo not drawn) [Example 1, 6-bromo-N-(naphthalene-1-sulfonyl)-4-phenyl-3,4-dihydro-2H-1-benzopyran-4-carboxamide] | < 3 µM | < 3 µM | +++ (≥350) | ≥ 150% | –
CCSC[C@H]1C[C@@](C(=O)NS(=O)(=O)c2cccc3ccccc23)(c2ccccc2)c2ccccc2O1 [Example 2, (2R,4R)-2-[(ethylsulfanyl)methyl]-N-(naphthalene-1-sulfonyl)-4-phenyl-3,4-dihydro-2H-1-benzopyran-4-carboxamide] | < 3 µM | < 3 µM | +++ (≥350) | 50 to 150% | –
COc1ccc2c(c1)C(C(=O)NS(=O)(=O)c1cccc3ccccc13)(c1ccccc1)CC(C)(C)O2 (stereo not drawn) [Example 3, 6-methoxy-2,2-dimethyl-N-(naphthalene-1-sulfonyl)-4-phenyl-3,4-dihydro-2H-1-benzopyran-4-carboxamide] | < 3 µM | < 3 µM | +++ (≥350) | ≥ 150% | –
COc1ccc2c(c1)C(C(=O)NS(=O)(=O)c1cccc3ccccc13)(c1ccccc1)CCO2 (stereo not drawn) [Example 4, 6-methoxy-N-(naphthalene-1-sulfonyl)-4-phenyl-3,4-dihydro-2H-1-benzopyran-4-carboxamide] | < 3 µM | < 3 µM | +++ (≥350) | 50 to 150% | –
Cc1cc2c(c(C)c1C(=O)c1ccccc1)C(C(=O)NS(=O)(=O)c1cccc3ccccc13)CCO2 (stereo not drawn) [Example 5, 6-benzoyl-5,7-dimethyl-N-(naphthalene-1-sulfonyl)-3,4-dihydro-2H-1-benzopyran-4-carboxamide] | < 3 µM | < 3 µM | +++ (≥350) | ≥ 150% | –
O=C(NS(=O)(=O)c1cccc2ccccc12)C1(c2ccccc2)COc2ccccc21 (stereo not drawn) [Example 6, N-(naphthalene-1-sulfonyl)-3-phenyl-2,3-dihydro-1-benzofuran-3-carboxamide] | < 3 µM | < 3 µM | +++ (≥350) | 50 to 150% | –
O=C(NS(=O)(=O)c1cccc2ccccc12)C1CCOc2c(Cl)cccc21 (stereo not drawn) [Example 7, 8-chloro-N-(naphthalene-1-sulfonyl)-3,4-dihydro-2H-1-benzopyran-4-carboxamide] | 3 to 10 µM | 3 to 10 µM | +++ (≥350) | ≥ 150% | –
CCC1(C(=O)NS(=O)(=O)c2cccc3ccccc23)COc2cccc(OC)c21 (stereo not drawn) [Example 8, 3-ethyl-4-methoxy-N-(naphthalene-1-sulfonyl)-2,3-dihydro-1-benzofuran-3-carboxamide] | 3 to 10 µM | < 3 µM | +++ (≥350) | ≥ 150% | –

More lines, main results first:

EC50 [1] | EC50 [3] | Maximum % activity (with co-corrector) [4] | Emax [2] | Compound | Maximum % activity (without co-corrector) [2]
3 to 10 µM | < 3 µM | +++ (≥350) | ≥ 150% | COc1ccc(C2CCC2)c2c1C(C(=O)NS(=O)(=O)c1cccc3nc(C)ccc13)CCO2 (racemic) [Example 75, 8-cyclobutyl-5-methoxy-N-(2-methylquinoline-5-sulfonyl)-3,4-dihydro-2H-1-benzopyran-4-carboxamide] | –
< 3 µM | < 3 µM | +++ (≥350) | ≥ 150% | COc1ccc(Br)c2c1[C@H](C(=O)NS(=O)(=O)c1cccc3ccccc13)CO2 (single isomer, unassigned) [Example 74] | –
3 to 10 µM | 3 to 10 µM | +++ (≥350) | ≥ 150% | COc1ccc(C2CCC2)c2c1[C@@H](C(=O)NS(=O)(=O)c1cccc3ncccc13)CO2 (single isomer, unassigned) [Example 82] | –
< 3 µM | < 3 µM | +++ (≥350) | ≥ 150% | COc1ccc(C2CCC2)c2c1[C@H](C(=O)NS(=O)(=O)c1cccc3ncccc13)CO2 (single isomer, unassigned) [Example 83] | –
3 to 10 µM | < 3 µM | +++ (≥350) | 50 to 150% | COc1ccc(C2CCC2)c2c1[C@@H](C(=O)NS(=O)(=O)c1cccc3cnn(C)c13)CO2 (single isomer, unassigned) [Example 94] | –
< 3 µM | < 3 µM | +++ (≥350) | ≥ 150% | COc1ccc(C2CCC2)c2c1[C@H](C(=O)NS(=O)(=O)c1cccc3c1CCCN3)CC(C)(C)O2 (single isomer, unassigned) [Example 97] | –
3 to 10 µM | 3 to 10 µM | +++ (≥350) | 50 to 150% | COc1ccc(C2CCC2)c2c1[C@@H](C(=O)NS(=O)(=O)c1cccc3c1NCCC3)CO2 (single isomer, unassigned) [Example 98] | –
< 3 µM | < 3 µM | +++ (≥350) | ≥ 150% | COc1ccc(C2CCC2)c2c1OCC[C@H]2C(=O)NS(=O)(=O)c1cccc2ncccc12 (single isomer, unassigned) [Example 106] | –
3 to 10 µM | 3 to 10 µM | ++ (≥150 and <350) | < 50% | COc1ccc(C2CCC2)c2c1OCC[C@@H]2C(=O)NS(=O)(=O)c1cccc2ncccc12 (single isomer, unassigned) [Example 107] | –
